From patent US4141986A, “Antibiotics 890A2 and 890A5” (Merck & Co., Inc., priority 1977, dated 1979)

Columns and labels:
Assay type in all cases: cell-based
[1] = test system: Aerobacter aerogenes MB-835; experiment: In vitro antibacterial spectrum profile, agar diffusion; conditions: Klebsiella aerogenes, MB835, read-out: Inhib. Zone Diam.
[2] = test system: Vibrio percolans resistant to ceph. C) MB-2566; experiment: as above; conditions: Comamonas terrigena, read-out: Inhib. Zone Diam.
[3] = test system: Proteus mirabilis MB-3126; experiment: as above; conditions: read-out: Inhib. Zone Diam.
Sarcina lutea ATCC 9341 = experiment: as above; conditions: Micrococcus luteus, ATCC9341, read-out: Inhib. Zone Diam.
[4] = test system: Pseudomonas stutzeri ATCC 11607; experiment: as above; conditions: Stutzerimonas stutzeri, ATCC11607, read-out: Inhib. Zone Diam.
[5] = test system: Salmonella gallinarum MB-1287; experiment: as above; conditions: Salmonella enterica, read-out: Inhib. Zone Diam.
[6] = test system: Corynebacterium pseudodiph. ATCC 9742; experiment: as above; conditions: read-out: Inhib. Zone Diam.
[7] = test system: Erwinia atroseptica ATCC 4466; experiment: as above; conditions: Pectobacterium atrosepticum, ATCC4466, read-out: Inhib. Zone Diam.
[8] = test system: Pseudomonas aeruginosa MB-2824; experiment: as above; conditions: read-out: Inhib. Zone Diam.
[9] = test system: Vibrio percolans +2 × 10^5 units/ml. penicillinase MB-1272; experiment: In vitro antibacterial spectrum profile, agar diffusion, with penicillinase; conditions: Comamonas terrigena, read-out: Inhib. Zone Diam.
[10] = test system: Streptoccocus faecium MB-2820; experiment: In vitro antibacterial spectrum profile, agar diffusion; conditions: read-out: Inhib. Zone Diam.
Bacillus sp. MB-633 = experiment: as above; conditions: read-out: Inhib. Zone Diam.
Procedure: The test to determine the antibiotic spectrum profile of antibiotic 890A2 is carried out by saturating 1/4 inch diameter paper discs in a solution of antibiotic 890A2 in 5% methanol at a concentration of 5 μg./ml.; air drying the saturated paper discs and placing them on the surface of 100 × 15 mm. petri plates containing 5 ml. of seeded nutrient agar plus 0.2% yeast extract.
The test to determine the antibiotic spectrum profile of antibiotic 890A5 is carried out by application of a 0.015 ml. droplet of a 33 μg./ml. aqueous solution of the antibiotic on the surface of a 100 × 15 mm. petri plate containing 5 ml. of seeded nutrient agar plus 0.2% yeast extract.

[11] = test system: Serratia marcesens ATCC 990; experiment: as above; conditions: read-out: Inhib. Zone Diam.
[12] = test system: Escherichia coli ATCC 9637; experiment: as above; conditions: read-out: Inhib. Zone Diam.
Escherichia coli MB-1418 = experiment: as above; conditions: read-out: Inhib. Zone Diam.
[13] = test system: Pseudomonas aeruginosa MB-979; experiment: as above; conditions: read-out: Inhib. Zone Diam.
[14] = test system: Staphylococcus aureus MB-698; experiment: as above; conditions: read-out: Inhib. Zone Diam.
[15] = test system: Vibrio percolans + Aerobacter Lactamase MB-1272; experiment: In vitro antibacterial spectrum profile, agar diffusion, with Aerobacter lactamase; conditions: Comamonas terrigena, read-out: Inhib. Zone Diam.
[16] = test system: Staphylococcus aureus (res. methicillin) MB-2949; experiment: In vitro antibacterial spectrum profile, agar diffusion; conditions: read-out: Inhib. Zone Diam.
[17] = test system: Brucella bronchiseptica ATCC 4617; experiment: microbe, parasite or virus in culture; conditions: Bordetella bronchiseptica, ATCC4617, read-out: Inhib. Zone Diam.
[18] = test system: Proteus vulgaris ATCC 21100; experiment: In vitro antibacterial spectrum profile, agar diffusion; conditions: read-out: Inhib. Zone Diam.
[19] = test system: Klebsiella pneumoniae MB-1264; experiment: as above; conditions: read-out: Inhib. Zone Diam.
[20] = test system: Bacillus subtilis ATCC 6633; experiment: as above
[21] = test system: Vibrio percolans ATCC 8461; experiment: as above; conditions: Comamonas terrigena, ATCC8461, read-out: Inhib. Zone Diam.
Proteus vulgaris MB-1012 = experiment: as above; conditions: read-out: Inhib. Zone Diam.
[22] = test system: Xanthomonas vesicatoria MB-815; experiment: as above; conditions: read-out: Inhib. Zone Diam.
[23] = test system: Streptococcus faecalis MB-753; experiment: as above; conditions: Enterococcus faecalis, MB753, read-out: Inhib. Zone Diam.
[24] = 890A2 5 μg./ml., 1/4 inch paper disc
[25] = 890A5 33 μg./ml., 0.015 ml. droplet

## CC(=O)NC=CSC1=C(C(=O)O)N2C(=O)C(C(C)O)C2C1 (stereo not drawn) [Antibiotic 890A2]
[1]; [24]
  zone of inhibition at 5 µg/mL: 27 mm
[2]
  zone of inhibition at 5 µg/mL: 11 mm
[3]; MB3126, 890A2 5 μg./ml., 1/4 inch paper disc
  zone of inhibition at 5 µg/mL: 22 mm
Sarcina lutea ATCC 9341; [24]
  zone of inhibition at 5 µg/mL: 42 mm
[4]; [24]
  zone of inhibition at 5 µg/mL: 19 mm
[5]; [24]
  zone of inhibition at 5 µg/mL: 33 mm
[6]; ATCC9742, 890A2 5 μg./ml., 1/4 inch paper disc
  zone of inhibition at 5 µg/mL: 35 mm
[7]; [24]
  zone of inhibition at 5 µg/mL: 26 mm
[8]; MB2824, 890A2 5 μg./ml., 1/4 inch paper disc
  zone of inhibition at 5 µg/mL: 13 mm
[9]; [24]
  zone of inhibition at 5 µg/mL: 7 mm
[10]; [24]
  zone of inhibition at 5 µg/mL: 22 mm
Bacillus sp. MB-633; SP.MB633, 890A2 5 μg./ml., 1/4 inch paper disc
  zone of inhibition at 5 µg/mL: 40 mm
[11]; ATCC990, 890A2 5 μg./ml., 1/4 inch paper disc
  zone of inhibition at 5 µg/mL: 23 mm
[12]; ATCC9637, 890A2 5 μg./ml., 1/4 inch paper disc
  zone of inhibition at 5 µg/mL: 29 mm
Escherichia coli MB-1418; MB1418, 890A2 5 μg./ml., 1/4 inch paper disc
  zone of inhibition at 5 µg/mL: 32 mm
[13]; MB979, 890A2 5 μg./ml., 1/4 inch paper disc
  zone of inhibition at 5 µg/mL: 0 mm
[14]; MB698, 890A2 5 μg./ml., 1/4 inch paper disc
  zone of inhibition at 5 µg/mL: 30 mm
[15]
  zone of inhibition at 5 µg/mL: 31 mm
[16]; [24]
  zone of inhibition at 5 µg/mL: 11 mm
[17]
  zone of inhibition at 5 µg/mL: 29 mm
[18]; ATCC21100, 890A2 5 μg./ml., 1/4 inch paper disc
  zone of inhibition at 5 µg/mL: 30 mm
[19]; MB1264, 890A2 5 μg./ml., 1/4 inch paper disc
  zone of inhibition at 5 µg/mL: 31 mm
[20]; ATCC6633, 890A2 5 μg./ml., 1/4 inch paper disc, read-out: Inhib. Zone Diam.
  zone of inhibition at 5 µg/mL: 42 mm
[21]; [24]
  zone of inhibition at 5 µg/mL: 31 mm
Proteus vulgaris MB-1012; MB1012, 890A2 5 μg./ml., 1/4 inch paper disc
  zone of inhibition at 5 µg/mL: 11 mm
[22]; MB815, 890A2 5 μg./ml., 1/4 inch paper disc
  zone of inhibition at 5 µg/mL: 29 mm
[23]; [24]
  zone of inhibition at 5 µg/mL: 12 mm

## CC(=O)NC=CSC1=C(C(=O)O)N2C(=O)C(C(C)O)C2C1 (stereo not drawn) [Antibiotic 890A5]
[1]; [25]
  zone of inhibition at 33 µg/mL: 24 mm
[2]
  zone of inhibition at 33 µg/mL: 35 mm
[3]; MB3126, 890A5 33 μg./ml., 0.015 ml. droplet
  zone of inhibition at 33 µg/mL: 20 mm
Sarcina lutea ATCC 9341; [25]
  zone of inhibition at 33 µg/mL: 40 mm
[4]; [25]
  zone of inhibition at 33 µg/mL: 14 mm
[5]; [25]
  zone of inhibition at 33 µg/mL: 26 mm
[6]; ATCC9742, 890A5 33 μg./ml., 0.015 ml. droplet
  zone of inhibition at 33 µg/mL: 33 mm
[7]; [25]
  zone of inhibition at 33 µg/mL: 21 mm
[8]; MB2824, 890A5 33 μg./ml., 0.015 ml. droplet
  zone of inhibition at 33 µg/mL: 0 mm
[9]; [25]
  zone of inhibition at 33 µg/mL: 40 mm
[10]; [25]
  zone of inhibition at 33 µg/mL: 0 mm
Bacillus sp. MB-633; SP.MB633, 890A5 33 μg./ml., 0.015 ml. droplet
  zone of inhibition at 33 µg/mL: 18 mm
[11]; ATCC990, 890A5 33 μg./ml., 0.015 ml. droplet
  zone of inhibition at 33 µg/mL: 29 mm
[12]; ATCC9637, 890A5 33 μg./ml., 0.015 ml. droplet
  zone of inhibition at 33 µg/mL: 24 mm
Escherichia coli MB-1418; MB1418, 890A5 33 μg./ml., 0.015 ml. droplet
  zone of inhibition at 33 µg/mL: 27 mm
[13]; MB979, 890A5 33 μg./ml., 0.015 ml. droplet
  zone of inhibition at 33 µg/mL: 0 mm
[14]; MB698, 890A5 33 μg./ml., 0.015 ml. droplet
  zone of inhibition at 33 µg/mL: 35 mm
[15]
  zone of inhibition at 33 µg/mL: 36 mm
[16]
  zone of inhibition at 33 µg/mL: 15 mm
[17]
  zone of inhibition at 33 µg/mL: 22 mm
[18]; ATCC21100, 890A5 33 μg./ml., 0.015 ml. droplet
  zone of inhibition at 33 µg/mL: 27 mm
[19]; MB1264, 890A5 33 μg./ml., 0.015 ml. droplet
  zone of inhibition at 33 µg/mL: 27 mm
[20]; ATCC6633, read-out: Inhib. Zone Diam.
  zone of inhibition at 33 µg/mL: 27 mm
[21]; [25]
  zone of inhibition at 33 µg/mL: 32 mm
Proteus vulgaris MB-1012; MB1012, 890A5 33 μg./ml., 0.015 ml. droplet
  zone of inhibition at 33 µg/mL: 23 mm
[22]; MB815, 890A5 33 μg./ml., 0.015 ml. droplet
  zone of inhibition at 33 µg/mL: 20 mm
[23]; [25]
  zone of inhibition at 33 µg/mL: 0 mm
